# From patent US20210038579A1, “Treatment Of Patients With Classic Fabry Disease” (Amicus Therapeutics, Inc., priority 2018, published 2021)
# Numbering of substitutions follows the chain as printed.
# Key:
# [1] = target: T1, α-Gal A mutant form p.Gly144Val (c.431 G > T) (Homo sapiens, UniProt P06280, G144V); experiment: HEK assay: α-Gal A activity in HEK-293 cell lysate with migalastat; assay type: cell-based
# T1 construct: expressed in transfected cells; host or cells: HEK-293
# T1 sequence (P06280 32-429 G144V): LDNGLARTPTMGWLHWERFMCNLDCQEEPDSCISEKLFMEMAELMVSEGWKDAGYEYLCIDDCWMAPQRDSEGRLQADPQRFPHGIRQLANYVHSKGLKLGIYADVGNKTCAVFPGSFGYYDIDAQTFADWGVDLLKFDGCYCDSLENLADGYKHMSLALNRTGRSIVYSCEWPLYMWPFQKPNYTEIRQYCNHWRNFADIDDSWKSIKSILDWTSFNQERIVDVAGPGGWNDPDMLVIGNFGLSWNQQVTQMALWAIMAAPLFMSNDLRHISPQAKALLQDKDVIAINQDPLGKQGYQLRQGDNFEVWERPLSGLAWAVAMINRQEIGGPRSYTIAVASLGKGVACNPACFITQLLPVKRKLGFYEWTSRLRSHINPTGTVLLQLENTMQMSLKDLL
# Method in brief: (§1)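 HEK-293 cells are transfected transiently with cDNA for each missense or small in-frame indel α-Gal A mutant. They are cultured ±migalastat across 17 nM to 1 mM over 4 to 5 days, after which lysate enzyme is quantified fluorogenically (4-MU-α-Gal) or by immunoblot.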
# [2] = target: T2, α-Gal A mutant form p.Gly260Ala (c.779 G > C) (Homo sapiens, UniProt P06280, G260A); experiment: as above; assay type: cell-based
# T2 construct: expressed in transfected cells; host or cells: HEK-293
# T2 sequence (P06280 32-429 G260A): T1 sequence (P06280 32-429 G144V) with V113G, G229A
# Method in brief: as §1
# [3] = target: T3, α-Gal A mutant form p.Met187Ile (c.561 G > A) (Homo sapiens, UniProt P06280, M187I); experiment: as above; assay type: cell-based
# T3 construct: expressed in transfected cells; host or cells: HEK-293
# T3 sequence (P06280 32-429 M187I): T1 sequence (P06280 32-429 G144V) with V113G, M156I
# Method in brief: as §1
# [4] = target: T4, α-Gal A mutant form p.Tyr216Cys (c.647 A > G) (Homo sapiens, UniProt P06280, Y216C); experiment: as above; assay type: cell-based
# T4 construct: expressed in transfected cells; host or cells: HEK-293
# T4 sequence (P06280 32-429 Y216C): T1 sequence (P06280 32-429 G144V) with V113G, Y185C
# Method in brief: as §1
# [5] = Phase 3 study, ERT-naïve Fabry patients: echocardiography (LVMi); assay type: in vivo, human; settings: for mean (SD) change in LVMi: baseline (or month 6) to month 24; for LVMi change: after 24 months of treatment
# Protocol: Patient Enrollment. […] Study Design. […] Echocardiography. LVMi, left posterior wall thickness, diastolic, interventricular septum thickness, diastolic and other parameters were assessed through blinded, centralized evaluation. For all outcomes except GL-3 inclusions per kidney interstitial capillary, data are pooled for patients within phenotype subgroups regardless of treatment allocation for the first six months (migalastat or placebo).
# [6] = Phase 3 study, ERT-naïve Fabry patients: Gastrointestinal Symptoms Rating Scale for Diarrhea (GSRS-D); assay type: in vivo, human; settings: for mean change in GSRS-D: total amenable patient population
# Protocol: Patient Enrollment. […] Study Design. […] Patient-Reported Outcomes. Patient-reported outcomes were assessed using the Gastrointestinal-Symptoms-Rating-Scale (GSRS), Short Form-36v2TM and Brief-Pain-Inventory-Pain-Severity-Component. For all outcomes except GL-3 inclusions per kidney interstitial capillary, data are pooled for patients within phenotype subgroups regardless of treatment allocation for the first six months (migalastat or placebo).
# [7] = +10 μM migalastat, HEK-293 cell lysate, mean ± SEM, n = 20
# [8] = HEK293, 10 μM migalastat minus baseline, read-out: Absolute increase at 10 μM (% WT)
structure (smiles),measurement,setting,value
OC[C@H]1NC[C@H](O)[C@@H](O)[C@H]1O [migalastat],α-Gal A activity at 10 μM (fold over baseline),[1]; 10 μM migalastat,11.58 fold over baseline
same,+Migalastat α-Gal A activity,[1]; [7],2924 ± 335 nmol/mg/h
same,+Migalastat α-Gal A activity % WT,[1]; [7],9.2 ± 1.2 % WT
same,activation at 10 µM,[1]; [8],8.4%
same,α-Gal A activity at 10 μM (fold over baseline),[2]; 10 μM migalastat,4.84 fold over baseline
same,+Migalastat α-Gal A activity,[2]; [7],10749 ± 403 nmol/mg/h
same,+Migalastat α-Gal A activity % WT,[2]; [7],37.4 ± 3.1 % WT
same,activation at 10 µM,[2]; [8],29.9%
same,α-Gal A activity at 10 μM (fold over baseline),[3]; 10 μM migalastat,6.10 fold over baseline
same,+Migalastat α-Gal A activity,[3]; [7],10824 ± 555 nmol/mg/h
same,+Migalastat α-Gal A activity % WT,[3]; [7],30.7 ± 1.1 % WT
same,activation at 10 µM,[3]; [8],25.6%
same,α-Gal A activity at 10 μM (fold over baseline),[4]; 10 μM migalastat,10.40 fold over baseline
same,+Migalastat α-Gal A activity,[4]; [7],7003 ± 305 nmol/mg/h
same,+Migalastat α-Gal A activity % WT,[4]; [7],20.7 ± 0.8 % WT
same,activation at 10 µM,[4]; [8],18.7%
same,classic male patients with data reporting a reduction in LVMi,"[5]; classic male patients, age range 16-61 years",7/8
same,mean (SD) change in LVMi,[5]; classic males,−16.7 (18.64) g/m^2
same,mean (SD) change in LVMi,[5]; other patients,−3.2 (18.66) g/m^2
same,LVMi change,[5]; overall migalastat-treated population,−7.7 g/m^2
same,LVMi change,[5]; patients with LVH,−18.6 g/m^2
same,classic male patients with diarrhea at baseline achieving MCID reduction of 0.33 in GSRS-D,"[6]; 7 of the 8 patients, by 24 months",88%
same,mean (SD) change from baseline (or month 6) in diarrhea symptoms (GSRS-D),"[6]; classic male patients, by 24 months",−0.9 (1.75)
same,mean (SD) change in GSRS-D,"[6]; other patients, month 24",−0.5 (1.01)
same,mean change in GSRS-D,[6]; month 6,−0.3
same,mean change in GSRS-D,[6]; month 24,−0.5
